Results reported in patent US20110020471A1, “ERYTHROCYTE ATP-RELEASE MODULATORS” (Wayne State University, priority 2007, published 2011).

How the values were obtained:
[1] = test system: rabbit red blood cells (RBCs); assay: Deformation-induced ATP release from rabbit RBCs pumped through microbore tubing (luciferin/luciferase chemiluminescence); type: cell-based
Experimental: (§1) Preparation of RBCs. Rabbits (New Zealand whites, males, 2.0-2.5 kg) were anesthetized with ketamine ([…], i.m.) and xylazine (1 mg/kg, i.m.) followed by pentobarbital sodium (15 mg/kg i.v.). A cannula was placed in the trachea and the animals were ventilated with room air. A catheter was placed into a carotid artery for administration of heparin and for phlebotomy. After heparin (500 units, i.v.), the animals were exsanguinated. Human blood was obtained by venipuncture without the use of a tourniquet (antecubital fossa) and collected into a heparinized syringe. Blood was centrifuged at 500×g at 4 C for 10 min. The plasma and buffy coat were discarded. The RBCs were resuspended and washed three times in a physiological salt solution [PSS, containing in mM: 4.7 KCl, 2.0 CaCl2, 140.5 NaCl […], 21.0 tris(hydroxymethyl)aminomethane, 11.1 dextrose with 5% bovine serum albumin (final pH 7.4)]. Cells were prepared on the day of use and experiments were finished within 8 hours of removal from the animal or human subjects. All procedures were approved by the Animal Investigation Committee or the Human Investigation Committee at Wayne State University.
(§2) Measurement of ATP. Human C-peptide (American Peptide Co., Sunnyvale, Calif.), 0.25 mg (MW=3020 g/mol), was dissolved in […] of purified water (18.2 megaohm) to yield a concentration of 83 μM. […] The resulting chemluminescence reaction flowed through a final potion of fused-silica microbore tubing that was placed over a photomultiplier tube, where the emission was detected. The resultant current was measured as a potential by a data acquisition board operated by a program written with the LabView software package (National Instruments, Austin, Tex.).
Introduction. […] Upon deformation in the tubing, the RBCs release ATP that is measured using a well-established chemiluminescence assay for ATP. The concentrations of RBC-derived ATP are measured in the presence and absence of synthetic C-peptide.
C-Peptide-Induced Release of ATP. RBCs obtained from rabbits are pumped through microbore tubing having an inside diameter of […] and the resultant ATP released by the cells upon deformation in the tubing is measured. […] Another aliquot from the same RBC sample is incubated in 1 nM C-peptide and the resultant ATP release measured every 2 h for a period up to 6 h. […] As shown, the ATP release (determined by a chemiluminescence assay) from those cells incubated in the c-peptide increased approximately 2.9 times over a period of […]. […] If cell lysis were occurring, the glybenclamide would have no affect on the measured ATP as it would be present in extracellular form whether or not glybenclamide was introduced to the RBCs. […]

diabetic human RBCs = assay: ATP release from RBCs of patients with type II diabetes; type: cell-based; settings: for ATP release: diabetic human RBCs, ±SEM (n=7)
Experimental: as §1
as §2, with “μM. Next, an appropriate volume of this C-peptide solution was added to 10 mL of a 7% solution of RBCs to create a solution containing the C-peptide at concentrations in the 1-5 nM range.” for “μM.”, “Tex.). […]” for “Tex.).”

RBCs [2] = assay: Lysis control: ATP signal of RBC solutions under non-flow conditions (luminometer); type: cell-based; settings: 200 μL RBC solution and 200 μL luciferin/luciferase
Experimental: To ensure that the resulting increase in ATP release was due to C-peptide interacting with the RBCs and not cell lysis, the RBC solutions were measured under non-flow conditions using a luminometer with 200 μL of the RBC solution and 200 μL of the luciferin/luciferase solution. […] To ensure that lysis was not occurring in the tubing, a solution of 0.01 M glybenclamide was prepared by adding 49 mg of glybenclamide (Sigma) to 2 mL of a 0.1 M solution of sodium hydroxide. To this, 7.94 mL of a dextrose solution (1 g dextrose in 20 mL of purified water) was added. The mixture was heated carefully to 52° C. until all of the glybenclamide was dissolved. Once the solute was completely dissolved, 1 mL of this solution was added to 9 mL of PSS, resulting in a solution with a concentration 0.001 M. From this diluted solution, 2.5 mL were added to 2.5 mL of 7% hematocrit RBC solution, resulting in a 3.5% hematocrit solution of RBCs. This solution was allowed to incubate for 15 minutes. As a comparison, 2.5 mL of wash buffer without glybenclamide was added to 2.5 mL of 7% hematocrit RBCs. After 15 minutes, the RBC solutions were assayed.

[3] = Electrospray ionization mass spectrometry of C-peptide and metal adducts in aqueous solution; type: physicochemical; settings: ESI-MS, remaining in solution for periods >30 days
Experimental: Mass Spectrometric Analysis of Metal-Peptide Binding. […] Thus, alternative postulated causes are tested, including that a covalent modification of the peptide, e.g., induction or lysis of a side-chain-to-side-chain bond or of a moiety covalently attached to an amino acid residue, might be involved, or that non-covalent interaction with another chemical species, e.g., a metal ion, might be involved in this effect.
The data in FIG. 3 reveal some information about the possible loss of activity of the C-peptide after preparation in the aqueous solvent. Specifically, the mass spectrum shown in FIG. 3a is that of peptide prepared in water and analyzed within 0.5 h of preparation. In 3a, the [M+3H]^3+ peak is present as are other forms of the peptide with sodium atoms, potassium atoms, or a combination thereof. […] The presence of this Fe(II) adduct to the C-peptide is not present 24 h after preparation.
Although the Fe(II)-bound C-peptide has the ability to increase ATP-release from deformed RBCs, its activity also appears somewhat limited. […] The unexpected result is that the population of Fe(II)-C-peptide adduct begins to diminish within 24 h after the addition of an Fe(II) source, and Fe(II) is then replaced by either sodium or potassium, or both, cations in the C-peptide complex.
Improving Metal-Induced Activity of C-Peptide. […]

RBCs [4] = assay: Loss of ATP-release bioactivity of C-peptide preparation in water (metaanalysis of repeats of Experiments 1 and 2); type: cell-based

| Compound | effect on the C-peptide-induced increase in ATP release ([1]; RBCs incubated in glybenclamide) | increase in ATP release versus control (buffer without C-peptide) ([1]; 1 nM C-peptide, over the 6 h period) | increase in ATP release ([1]; 1 nM c-peptide, over a period of 8 h, normalized values) | ability to induce ATP release from deformed RBCs ([1]; C-peptide kept at 4° C. for >30 days) | restoration of ATP release levels of diabetic RBCs (diabetic human RBCs; RBCs of patients with type II diabetes (n=7)) | ATP release (diabetic human RBCs; after 6 hours of incubation with freshly prepared C-peptide preparation) | ATP release (diabetic human RBCs; at 0 hours, freshly prepared C-peptide preparation) | ATP signal under non-flow conditions (RBCs [2]) | degradation or cleavage of the peptide in solution [3] | time to loss of bioactivity after preparation in water (RBCs [4]) |
| --- | --- | --- | --- | --- | --- | --- | --- | --- | --- | --- |
| COc1ccc(Cl)cc1C(=O)NCCc1ccc(S(=O)(=O)NC(=O)NC2CCCCC2)cc1 [glybenclamide, reference compound] | can be inhibited | – | – | – | – | – | – | – | – | – |
| C-peptide: Human proinsulin C-peptide (American Peptide Co.), MW 3020 g/mol, synthetic (EAEDLQVGQVELGGGPGAGSLQPLALEGSLQ; (1)..(31) Hominidae sp. proinsulin C-peptide Human (Genbank P01308..gi124617), Chimpanzee (Genbank NP_001008996.1.. gi57113877), Orangutan (Genbank Q8HXV2..gi48428254), and Gorilla (Genbank AAM76640.1..gi23379796); listed as Hominidae sp.) | – | nearly three times that of the RBCs incubated with a control | approximately 2.9 times | no longer has the ability to induce ATP release from deformed RBCs | statistically equivalent to that of healthy, non-diabetic control patients | 256.1 ± 38.7 nM | 63.6 ± 12.6 nM | No detectable signals | not undergoing any type of degradation or cleavage | 24 to 36 h |
